# How the values were obtained:
# leukemia P-388 cells = test: Antitumor activity against Vincristine sensitive leukemia P-388 in mice (Test Example 4); assay type: in vivo, CDF1 mice; settings: for ILS (%): P-388
# Text: (§1) Vincristine resistant or sensitive leukemia P-388 cells (1 x 10^6 cells) were intraperitoneally inoculated into CDF1 mice. Intraperitoneal administration of Rhizoxin and Vincristine was made on 1, 6 and 9 days after the tumor inoculation. The result is shown in Table 4 in terms of a percentage of an increase in the average life span of the treated mice over that of the control mice.
# plant pathogenic fungi = test: Growth of plant pathogenic fungi; assay type: cell-based
# Method: (§2) Rhizoxin has an action which can induce the characteristic symptoms of rice seedling blight, even at an extremely low concentration (10 ng/ml).
# Leukemia L-1210 cells = test: Antitumor activity against leukemia L-1210 in mice (Test Example 2); assay type: in vivo, CDF1 mice; settings: daily for 4 days; for ILS (%): increase in life span over control
# Method: Leukemia L-1210 cells (1 x 10^5 cells) were intraperitoneally inoculated into CDF1 mice. Intraperitoneal administration of Rhizoxin was started 24 hours after the tumor inoculation and continued daily for 4 days. The result is shown in Table 2 in terms of a percentage of an increase in the life span of the treated mice over that of the control mice (ILS).
# [1] = system: plant pathogenic bacteria; test: Multiplication of plant pathogenic bacteria; assay type: cell-based; settings: bacteria that are prokaryotes
# Method: as §2
# Solubility in solvents = assay type: physicochemical
# B-16 melanoma = test: Tumor growth inhibition of B-16 melanoma in mice (Test Example 3); assay type: in vivo, BDF1 mice; settings: daily for 4 days, based on tumor weight from tumor diameter
# Method: Tumor fragments of B-16 melanoma were subcutaneously inoculated into BDF1 mice. Intraperitoneal administration of Rhizoxin was begun 24 hours after the tumor inoculation and continued daily for 4 days.
# The-result is shown in Table 3 in terms of a percentage of tumor growth inhibition based on the tumor weight which can be obtained from the measurement of the tumor diameter.
# [2] = system: ascites tumor MH-134 cells due to the cancer of the liver; test: Antitumor activity against ascites tumor MH-134 in mice (Test Example 1); assay type: in vivo, C3H/He mice; settings: for Average life span: once a day for 10 days from 24 hours after inoculation, control 17.2 days; for T/C (%): once a day for 10 days, ratio of average life span, treated/control x 100
# Method: 1 x 10^6 of ascites tumor MH-134 cells due to the cancer of the liver were intraperitoneally inoculated into C3H/He mice (8 weeks old, each group 6 mice). Rhizoxin was dissolved with the addition of a small quantity of ethyl alcohol (not more than 1 volume percent on the basis of the total volume of the final solution), and further dissolved in a 0.85 X aqueous physiological sodium chloride solution containing 0.05 % of Tween 20. This solution was aseptically filtered, and 24 hours after the tumor inoculation, the solution was intraperitoneally administered to the mice continually for 10 days at a rate of 0.2 ml/mouse once a day. The antitumor activity of Rhizoxin was evaluated on the basis of the ratio (T/C) x 100 wherein T is the average life span of the Rhizoxin administered groups and C is the average life span of the control group.
# plants other than rice = test: Growth of the root of plants other than rice; settings: in vivo
# Method: as §2
# rice seedling = test: Induction of the characteristic symptoms of rice seedling blight; assay type: in vivo; settings: Oryza sativa; extremely low concentration at which the action is still seen; read-out: concentration that can induce the characteristic symptoms of rice seedling blight
# Method: as §2
# [3] = system: Vincristine resistant leukemia P-388 cells (P-388/VCR); test: Antitumor activity against Vincristine resistant leukemia P-388 in mice (Test Example 4); assay type: in vivo, CDF1 mice; settings: for ILS (%): P-388/VCR; for effectiveness against Vincristine resistant leukemia P-388: summary in words of Table 4
# Text: as §1
# [4] = Toxicity by intraperitoneal injection into mice; settings: mouse, in vivo, ip, C3H/He mice, read-out: LDS 0 value
# Method: The toxicity of Rhizoxin was examined by the intraperitoneal injection of said compound into C3H/He mice, and as the LDS 0 value was above 5 mg/kg, it may be mentioned that the value is far above the dosage usually given in treatment.
# [5] = 0.75 mg/Kg/day intraperitoneally on 1, 6 and 9 days after inoculation
# [6] = 1.0 mg/Kg/day intraperitoneally on 1, 6 and 9 days after inoculation
# [7] = 1.5 mg/Kg/day intraperitoneally on 1, 6 and 9 days after inoculation
# [8] = 0.25 mg/Kg/day intraperitoneally
# [9] = 0.5 mg/Kg/day intraperitoneally
# [10] = 1.0 mg/Kg/day intraperitoneally
# [11] = 15 mcg/Kg/day intraperitoneally
# [12] = 150 mcg/Kg/day intraperitoneally
# [13] = 2.0 mg/Kg/day intraperitoneally on 1, 6 and 9 days after inoculation
smiles,measurement,setting,value
CO[C@@H](/C(C)=C/C=C/C(C)=C/c1coc(C)n1)[C@@H](C)[C@@H]1C[C@H](O)[C@@]2(C)O[C@@H]2/C=C/[C@@H](C)[C@H]2C[C@H](CC(=O)O2)C[C@@H]2O[C@H]2C(=O)O1 [Rhizoxin],ILS (%),"leukemia P-388 cells; 0.5 mg/Kg/day intraperitoneally on 1, 6 and 9 days after inoculation",46.2%
same,ILS (%),leukemia P-388 cells; [5],65.6%
same,ILS (%),leukemia P-388 cells; [6],82.9%
same,ILS (%),leukemia P-388 cells; [7],123.7%
same,ILS (%),"leukemia P-388 cells; 3.0 mg/Kg/day intraperitoneally on 1, 6 and 9 days after inoculation",toxic
same,effectiveness against leukemia P-388,leukemia P-388 cells; summary in words of Table 4,effective
same,action on the growth of plant pathogenic fungi,plant pathogenic fungi,inhibits the growth
same,Change in body weight (g) (day 1-7),Leukemia L-1210 cells; [8],+0.4 g
same,ILS (%),Leukemia L-1210 cells; [8],43%
same,Change in body weight (g) (day 1-7),Leukemia L-1210 cells; [9],-0.7 g
same,ILS (%),Leukemia L-1210 cells; [9],67%
same,Change in body weight (g) (day 1-7),Leukemia L-1210 cells; [10],-2.9 g
same,ILS (%),Leukemia L-1210 cells; [10],81%
same,ILS (%),Leukemia L-1210 cells; 2.0 mg/Kg/day intraperitoneally,toxic
same,action on the multiplication of the plant pathogenic bacteria,[1],no recognizable action
same,Solubility in solvents,"Solubility in solvents; benzene, chloroform, acetone, alcohol, etc.",Easily soluble
same,Solubility in solvents,"Solubility in solvents; water, n-hexane",sparingly soluble
same,Tumor growth inhibition (%),B-16 melanoma; [8],38%
same,Tumor growth inhibition (%),B-16 melanoma; [9],68%
same,Tumor growth inhibition (%),B-16 melanoma; [10],62%
same,Average life span,[2]; [11],31.8 days
same,T/C (%),[2]; [11],185%
same,Average life span,[2]; [12],47.8 days
same,T/C (%),[2]; [12],278%
same,action on the growth of the root of the plants other than rice,plants other than rice,check the growth of the root
same,minimal effective concentration,rice seedling,0.01 µg/mL
same,ILS (%),[3]; [5],28.2%
same,ILS (%),[3]; [6],35.9%
same,ILS (%),[3]; [7],57.3%
same,ILS (%),[3]; [13],61.2%
same,ILS (%),"[3]; 4.0 mg/Kg/day intraperitoneally on 1, 6 and 9 days after inoculation",toxic
same,effectiveness against Vincristine resistant leukemia P-388,[3],clearly effective
same,LD50,[4],> 5 mg/kg
"CC[C@]1(O)C[C@H]2CN(CCc3c([nH]c4ccccc34)[C@@](C(=O)OC)(c3cc4c(cc3OC)N(C=O)[C@H]3[C@@](O)(C(=O)OC)[C@H](OC(C)=O)[C@]5(CC)C=CCN6CC[C@]43[C@@H]65)C2)C1 [Vincristine, reference compound]",ILS (%),[3]; [6],6.8%
same,ILS (%),[3]; [13],toxic
same,effectiveness against Vincristine resistant leukemia P-388,[3],not affected

# Reference: patent EP0145177A2, “Chemotherapeutic agents based on rhizoxin” (priority 1983, dated 1985)
